Reference: ChEMBL document CHEMBL1201862, “PubChem BioAssay data set” (2004)
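Compound exposure: 48 hours, 5 concentrations, 96-well plates. GI50 marks 50% less growth.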 Activity calls are given as the source filed them. Rule as the data show it: active = GI50 up to about 1.1 µM and inactive = higher.

Assays:
Experiment in all cases: NCI-60 cell line screen, 48 h
HOP-92 = system: HOP-92
HOP-62 = system: HOP-62
OVCAR-5 = system: OVCAR-5
COLO 205 = system: COLO 205
ACHN = system: ACHN
XF498 = system: XF498
HOP-18 = system: HOP-18
HL-60 = system: HL-60
OVCAR-8 = system: OVCAR-8
KM12 = system: KM12
M19-MEL = system: M19-MEL
LOX IMVI = system: LOX IMVI
HCT-116 = system: HCT-116
SK-MEL-28 = system: SK-MEL-28
RPMI-8226 = system: RPMI-8226
SNB-78 = system: SNB-78
OVCAR-4 = system: OVCAR-4
DMS-114 = system: DMS-114
U-251 = system: U-251
IGROV-1 = system: IGROV-1
HT-29 = system: HT-29
A549 = system: A549
EKVX = system: EKVX
SF-539 = system: SF-539
SR = system: SR
SK-MEL-5 = system: SK-MEL-5
HCT-15 = system: HCT-15
TK-10 = system: TK-10
Malme-3M = system: Malme-3M
KM-20L2 = system: KM-20L2
UO-31 = system: UO-31
SNB-75 = system: SNB-75
MOLT-4 = system: MOLT-4
RXF 631 = system: RXF 631
UACC-257 = system: UACC-257
SN12C = system: SN12C
SF-295 = system: SF-295
DMS-273 = system: DMS-273
CCRF-CEM = system: CCRF-CEM
LXFL 529 = system: LXFL 529
K562 = system: K562
M14 = system: M14
RXF 393 = system: RXF 393
SF-268 = system: SF-268
UACC-62 = system: UACC-62
CAKI-1 = system: CAKI-1
SK-MEL-2 = system: SK-MEL-2
NCI-H23 = system: NCI-H23
NCI-H522 = system: NCI-H522
OVCAR-3 = system: OVCAR-3
SNB-19 = system: SNB-19
A498 = system: A498
HCC 2998 = system: HCC 2998
NCI-H226 = system: NCI-H226
NCI-H460 = system: NCI-H460
DLD-1 = system: DLD-1
786-0 = system: 786-0
SW-620 = system: SW-620

For `CC(CN(C)C)C(=O)c1ccccc1` (stereo not drawn), which GI50 (HOP-92) is on record?
The GI50 was 2.33 µM (inactive).

And the GI50 (HOP-62)?
The GI50 was > 100 µM (inactive).

And the GI50 (OVCAR-5)?
The GI50 was 32.3 µM (inactive).

What about the GI50 (COLO 205) of the same compound?
Its GI50 is 31.6 µM (inactive).

What about the GI50 (ACHN) of the same compound?
Its GI50 is 24.8 µM (inactive).

And the GI50 (XF498)?
Its GI50 is 21.3 µM (inactive).

What about the GI50 (HOP-18) of the same compound?
Its GI50 is > 100 µM (inactive).

And the GI50 (HL-60)?
The GI50 was 15.9 µM (inactive).

And the GI50 (OVCAR-8)?
Its GI50 is 31.6 µM (inactive).

What about the GI50 (KM12) of the same compound?
The GI50 was 18.2 µM (inactive).

And the GI50 (M19-MEL)?
Its GI50 is 19.1 µM (inactive).

What about the GI50 (LOX IMVI) of the same compound?
The GI50 was 14.9 µM (inactive).

What about the GI50 (HCT-116) of the same compound?
The GI50 was 28.8 µM (inactive).

What about the GI50 (SK-MEL-28) of the same compound?
Its GI50 is > 41.7 µM (inactive).

And the GI50 (RPMI-8226)?
Its GI50 is 0.94 µM (active).

What about the GI50 (SNB-78) of the same compound?
The GI50 was 31 µM (inactive).

What about the GI50 (OVCAR-4) of the same compound?
The GI50 was > 41.1 µM (inactive).

And the GI50 (DMS-114)?
The GI50 was 26.6 µM (inactive).

What about the GI50 (U-251) of the same compound?
The GI50 was > 100 µM (inactive).

And the GI50 (IGROV-1)?
The GI50 was > 100 µM (inactive).

What about the GI50 (HT-29) of the same compound?
The GI50 was 20 µM (inactive).

And the GI50 (A549)?
Its GI50 is > 65.3 µM (inactive).

And the GI50 (EKVX)?
The GI50 was > 50.7 µM (inactive).

And the GI50 (SF-539)?
Its GI50 is 51.8 µM (inactive).

And the GI50 (SR)?
The GI50 was 19.6 µM (inactive).

What about the GI50 (SK-MEL-5) of the same compound?
The GI50 was > 82.4 µM (inactive).

And the GI50 (HCT-15)?
Its GI50 is 16.6 µM.

And the GI50 (TK-10)?
Its GI50 is > 100 µM (inactive).

What about the GI50 (Malme-3M) of the same compound?
Its GI50 is 24.3 µM (inactive).

And the GI50 (KM-20L2)?
Its GI50 is > 51.8 µM (inactive).

And the GI50 (UO-31)?
The GI50 was > 31.6 µM (inactive).

What about the GI50 (SNB-75) of the same compound?
Its GI50 is > 83.9 µM (inactive).

What about the GI50 (MOLT-4) of the same compound?
Its GI50 is 8.22 µM (inactive).

What about the GI50 (RXF 631) of the same compound?
Its GI50 is > 86.3 µM (inactive).

And the GI50 (UACC-257)?
The GI50 was > 48.6 µM (inactive).

What about the GI50 (SN12C) of the same compound?
Its GI50 is 17.6 µM (inactive).

What about the GI50 (SF-295) of the same compound?
The GI50 was > 100 µM (inactive).

What about the GI50 (DMS-273) of the same compound?
Its GI50 is > 100 µM (inactive).

What about the GI50 (CCRF-CEM) of the same compound?
Its GI50 is 3.78 µM (inactive).

And the GI50 (LXFL 529)?
Its GI50 is 18 µM (inactive).

And the GI50 (K562)?
The GI50 was 5.02 µM (inactive).

What about the GI50 (M14) of the same compound?
Its GI50 is 24.7 µM (inactive).

What about the GI50 (RXF 393) of the same compound?
The GI50 was 22.8 µM (inactive).

And the GI50 (SF-268)?
Its GI50 is 30.3 µM (inactive).

What about the GI50 (UACC-62) of the same compound?
The GI50 was 35.8 µM (inactive).

And the GI50 (CAKI-1)?
Its GI50 is 3.43 µM (inactive).

And the GI50 (SK-MEL-2)?
The GI50 was 22.7 µM (inactive).

And the GI50 (NCI-H23)?
Its GI50 is 24.9 µM (inactive).

What about the GI50 (NCI-H522) of the same compound?
Its GI50 is 2.04 µM (inactive).

What about the GI50 (OVCAR-3) of the same compound?
Its GI50 is 42.4 µM (inactive).

And the GI50 (SNB-19)?
Its GI50 is > 77.3 µM (inactive).

What about the GI50 (A498) of the same compound?
The GI50 was > 46.1 µM (inactive).

What about the GI50 (HCC 2998) of the same compound?
Its GI50 is 26.6 µM (inactive).

What about the GI50 (NCI-H226) of the same compound?
The GI50 was > 100 µM (inactive).

What about the GI50 (NCI-H460) of the same compound?
The GI50 was > 78.7 µM (inactive).

What about the GI50 (DLD-1) of the same compound?
Its GI50 is 8.97 µM (inactive).

And the GI50 (786-0)?
Its GI50 is 22.6 µM (inactive).

And the GI50 (SW-620)?
The GI50 was 12.9 µM (inactive).
